{"source": "patent US9765043B2", "about": "“Salts of potassium ATP channel openers and uses thereof” (Essentialis, Inc., priority 2012, dated 2017)", "key": {"[1]": {"experiment": "Moisture sorption analysis", "format": "physicochemical", "conditions": "25° C.", "procedure": "Moisture Sorption Analysis was performed with a Hiden IGAsorp Moisture Sorption Instrument. […] The samples were allowed to equilibrate to an asymptotic weight at each point for a maximum of 4 hours. […] The resulting samples after desorption were dried at 80° C. for two hours and analyzed by XRPD."}, "[2]": {"experiment": "Form conversion and degradation under thermal stress", "procedure": "Studies were also conducted to evaluate the likelihood for conversion and degradation under thermal stress."}, "[3]": {"experiment": "Slurry studies of solid form inter-conversion", "format": "physicochemical", "conditions": "for propensity of inter-conversion of the solid form in slurry: room temperature, absence of light, up to 14 days, solvents per substance (water, IPA, CH2Cl2, toluene, n-heptane, EtOAc, MeCN, THF, t-AmOH); for Slurries: diazoxide potassium salt, room-temperature slurry"}, "[4]": {"tested_on": "Zucker Diabetic Fatty (ZDF) rats", "conditions": "150 mg/kg/day, 8 weeks; cited from earlier work"}, "[5]": {"tested_on": "Zucker rats", "conditions": "oral 1-10 mg/kg/day for 14 days; cited from earlier work"}, "[6]": {"tested_on": "healthy volunteers", "procedure": "(§1) A randomized double-blind, placebo-controlled clinical trial was conducted in 24 healthy volunteers. They were randomized in a 2:1 ratio of treated to placebo. […] The dose was administered once per day in the morning for a period of 7 days. A number of lipid parameters were measured at baseline and again on day 7 including fasting triglycerides, total cholesterol, LDL cholesterol, HDL cholesterol, and non-HDL cholesterol. Additionally, blood pressure was measured on a daily basis."}, "[7]": {"tested_on": "healthy volunteers", "procedure": "as §1\nIn PK008, the dose was administered as one and one ½ tablet formulation K′.", "remark": "listed apart in the source"}, "[8]": {"tested_on": "hypertriglyceridemic patients", "experiment": "Clinical study in 12 hypertriglyceridemic patients (formulation U / K′ crossover): lipids", "format": "in vivo, human", "conditions": "435 mg/day diazoxide choline once per day, 15 days", "procedure": "A clinical study was conducted in 12 hypertriglyceridemic patients. […] Treatment continued for 16 days. The endpoint of the study was percentage change from baseline to day 15 of triglycerides, total cholesterol, LDL cholesterol, HDL cholesterol and non-HDL cholesterol. Lipid parameters were measured at baseline and on days 7 and 15. Blood pressure was collected at multiple time points."}, "[9]": {"experiment": "Excipient compatibility study for diazoxide choline salt", "format": "physicochemical"}, "[10]": {"conditions": "60° C., closed environment, protected from light, 7 and 14 days, XRPD, DSC, HPLC"}, "[11]": {"conditions": "Study EC004, 435 mg, 7 days, Baseline"}, "[12]": {"conditions": "Study EC004, 435 mg, 7 days, End of treatment"}, "[13]": {"conditions": "Study TR002, 508 mg, 49 days, Baseline"}, "[14]": {"conditions": "Study TR002, 508 mg, 49 days, End of treatment"}}, "note": "“Also recorded” adds a separate entry of the source. Where two headings read alike, the source gives them in different places."}
{"compound": "CC1=Nc2ccc(Cl)cc2S(=O)(=O)N1", "note": "[Diazoxide, 7-chloro-3-methyl-2H-1,2,4-benzothiadiazine 1,1 dioxide, reference compound]", "values": [{"measurement": "water absorbed at 60% RH", "setting": "[1]", "value": "approximately 0.04 wt %"}, {"measurement": "water absorbed at 90% RH", "setting": "[1]", "value": "~0.20", "unit": "wt %"}, {"measurement": "Moisture sorption (hygroscopicity)", "setting": "[1]; listed as Free form", "value": "no hysteresis"}, {"measurement": "conversion and degradation under thermal stress", "setting": "[2]; [10]", "value": "no conversion or degradation"}, {"measurement": "propensity of inter-conversion of the solid form in slurry", "setting": "[3]", "value": "did not convert to alternate crystal forms"}, {"measurement": "hepatic lipid contents", "setting": "[4]", "value": "decreased hepatic triglycerides, long chain acyl-CoA and cholesterol contents"}]}
{"compound": "CC1=Nc2ccc(Cl)cc2S(=O)(=O)[N-]1.C[N+](C)(C)CCO", "note": "[Diazoxide choline salt Form A]", "values": [{"measurement": "Moisture sorption (hygroscopicity)", "setting": "[1]", "value": "hygroscopic solid"}, {"measurement": "water absorbed at 60% RH", "setting": "[1]; listed as Form A", "value": 2.4, "unit": "wt %"}, {"measurement": "conversion and degradation under thermal stress", "setting": "[2]", "value": "Started to convert to Form"}, {"measurement": "propensity of inter-conversion of the solid form in slurry", "setting": "[3]; listed as Form A", "value": "conversion to Form B was observed after seven days; also recorded: readily converted to Form B in all slurry solvents utilized; also recorded: Converted to Form B after"}]}
{"compound": "N#CNC(=NCCc1ccccc1Cl)c1cncc(N)c1", "note": "[KRN4884]", "values": [{"measurement": "serum triglyceride levels", "setting": "[5]", "value": "dose dependently reduce serum triglyceride levels"}]}
{"compound": "C1COCCO1.CC1=NS(=O)(=O)c2cc(Cl)ccc2[N-]1.CC1=NS(=O)(=O)c2cc(Cl)ccc2[N-]1.[K+].[K+]", "note": "[Diazoxide potassium salt Form F]", "values": [{"measurement": "Moisture sorption (hygroscopicity)", "setting": "[1]", "value": "hygroscopic solid"}, {"measurement": "Thermal", "setting": "[2]; diazoxide potassium salt, thermal stress, 7 days", "value": "Stable (7 days)"}, {"measurement": "Slurries", "setting": "[3]", "value": "Converted to Form D"}, {"measurement": "propensity of inter-conversion of the solid form in slurry", "setting": "[3]", "value": "readily converted to Form D in all slurry solvents utilized; also recorded: conversion to Form D was observed in all solvents"}]}
{"compound": "CC1=NS(=O)(=O)c2cc(Cl)ccc2[N-]1.[K+]", "note": "[Potassium diazoxide salt]", "values": [{"measurement": "water absorbed at 60% RH", "setting": "[1]", "value": 5.4, "unit": "wt %"}, {"measurement": "water absorbed at 90% RH", "setting": "[1]", "value": 38.3, "unit": "wt %"}, {"measurement": "conversion and degradation under thermal stress", "setting": "[2]; [10]", "value": "did not show any significant degradation"}, {"measurement": "propensity of inter-conversion of the solid form in slurry", "setting": "[3]", "value": "no propensity of inter-conversion"}]}
{"compound": "CC1=NS(=O)(=O)c2cc(Cl)ccc2[N-]1.CC1=NS(=O)(=O)c2cc(Cl)ccc2[N-]1.O.[K+].[K+]", "note": "[Diazoxide potassium salt Form D]", "values": [{"measurement": "Slurries", "setting": "[3]", "value": "Converted to Form D"}]}
{"compound": "CC1=Nc2ccc(Cl)cc2S(=O)(=O)[N-]1.C[N+](C)(C)CCO", "note": "[Choline diazoxide salt]", "values": [{"measurement": "conversion and degradation under thermal stress", "setting": "[2]", "value": "did not show any significant degradation"}, {"measurement": "propensity of inter-conversion of the solid form in slurry", "setting": "[3]; listed as choline salt", "value": "no propensity of inter-conversion"}, {"measurement": "HDL cholesterol, mean ± SEM", "setting": "[6]; 300 mg diazoxide/day, Baseline", "value": "49 ± 3.3", "unit": "mg/dL"}, {"measurement": "LDL cholesterol, mean ± SEM", "setting": "[6]; 300 mg diazoxide/day, Baseline", "value": "111 ± 5.8", "unit": "mg/dL"}, {"measurement": "Total cholesterol, mean ± SEM", "setting": "[6]; 300 mg diazoxide/day, Baseline", "value": "175 ± 7.5", "unit": "mg/dL"}, {"measurement": "Triglycerides, mean ± SEM", "setting": "[6]; 300 mg diazoxide/day, Baseline", "value": "76 ± 7.8", "unit": "mg/dL"}, {"measurement": "non-HDL cholesterol, mean ± SEM", "setting": "[6]; 300 mg diazoxide/day, Baseline", "value": "126 ± 6.6", "unit": "mg/dL"}, {"measurement": "HDL cholesterol, Percent change from baseline", "setting": "[6]; 300 mg diazoxide/day, Day 7", "value": 8.2, "unit": "%"}, {"measurement": "HDL cholesterol, mean ± SEM", "setting": "[6]; 300 mg diazoxide/day, Day 7", "value": "53 ± 2.9", "unit": "mg/dL"}, {"measurement": "LDL cholesterol, Percent change from baseline", "setting": "[6]; 300 mg diazoxide/day, Day 7", "value": "−5.4", "unit": "%"}, {"measurement": "LDL cholesterol, mean ± SEM", "setting": "[6]; 300 mg diazoxide/day, Day 7", "value": "105 ± 4.9", "unit": "mg/dL"}, {"measurement": "Total cholesterol, Percent change from baseline", "setting": "[6]; 300 mg diazoxide/day, Day 7", "value": "−2.3", "unit": "%"}, {"measurement": "Total cholesterol, mean ± SEM", "setting": "[6]; 300 mg diazoxide/day, Day 7", "value": "171 ± 6.4", "unit": "mg/dL"}, {"measurement": "Triglycerides, Percent change from baseline", "setting": "[6]; 300 mg diazoxide/day, Day 7", "value": "−13.2", "unit": "%"}, {"measurement": "Triglycerides, mean ± SEM", "setting": "[6]; 300 mg diazoxide/day, Day 7", "value": "66 ± 3.9", "unit": "mg/dL"}, {"measurement": "non-HDL cholesterol, Percent change from baseline", "setting": "[6]; 300 mg diazoxide/day, Day 7", "value": "−6.3", "unit": "%"}, {"measurement": "non-HDL cholesterol, mean ± SEM", "setting": "[6]; 300 mg diazoxide/day, Day 7", "value": "118 ± 5.5", "unit": "mg/dL"}, {"measurement": "reduction in total cholesterol, LDL cholesterol and non-HDL cholesterol vs placebo arm", "setting": "[6]; baseline to day 7, 300 mg/day diazoxide as formulation U", "value": "greater for each lipid parameter than the corresponding reduction in the placebo arm"}, {"measurement": "Diastolic blood pressure", "setting": "[7]; [11]", "value": 69.4, "unit": "mmHg"}, {"measurement": "Systolic blood pressure", "setting": "[7]; [11]", "value": 113.2, "unit": "mmHg"}, {"measurement": "Diastolic blood pressure", "setting": "[7]; [12]", "value": 63.2, "unit": "mmHg"}, {"measurement": "Systolic blood pressure", "setting": "[7]; [12]", "value": 113.5, "unit": "mmHg"}, {"measurement": "Diastolic blood pressure", "setting": "[7]; [13]", "value": 77.7, "unit": "mmHg"}, {"measurement": "Systolic blood pressure", "setting": "[7]; [13]", "value": 118.1, "unit": "mmHg"}, {"measurement": "Diastolic blood pressure", "setting": "[7]; [14]", "value": 67.0, "unit": "mmHg"}, {"measurement": "Systolic blood pressure", "setting": "[7]; [14]", "value": 117.0, "unit": "mmHg"}, {"measurement": "lipid response", "setting": "[8]", "value": "marked reductions in triglycerides, total cholesterol, LDL cholesterol, and nonHDL cholesterol and a marked increase in HDL cholesterol"}]}
{"compound": "CC1=Nc2ccc(Cl)cc2S(=O)(=O)N1", "note": "[Diazoxide Control]", "values": [{"measurement": "1 Month 40° C./75% RH % (w/w)", "setting": "[9]; one-month storage 40° C./75% RH", "value": "99.0 % (w/w)"}, {"measurement": "1 Month 50° C. % (w/w)", "setting": "[9]; one-month storage 50° C.", "value": "99.4 % (w/w)"}]}
{"compound": "CC1=Nc2ccc(Cl)cc2S(=O)(=O)[N-]1.C[N+](C)(C)CCO", "note": "[Diazoxide choline salt Form B]", "values": [{"measurement": "water absorbed at 60% RH", "setting": "[1]; listed as Form B", "value": 7.4, "unit": "wt %"}, {"measurement": "conversion and degradation under thermal stress", "setting": "[2]", "value": "Stable after 14 days at"}, {"measurement": "propensity of inter-conversion of the solid form in slurry", "setting": "[3]; listed as Form B", "value": "form conversion was not observed; also recorded: Stable after 14 days in"}]}
{"compound": "CC1=NS(=O)(=O)c2cc(Cl)ccc2[N-]1.[Na+]", "note": "[Sodium diazoxide salt]", "values": [{"measurement": "water absorbed at 60% RH", "setting": "[1]", "value": 1.2, "unit": "wt %"}, {"measurement": "water absorbed at 80% RH", "setting": "[1]; 80% RH", "value": 6.6, "unit": "wt %"}, {"measurement": "conversion and degradation under thermal stress", "setting": "[2]; [10]", "value": "little propensity to change form or degrade"}, {"measurement": "propensity of inter-conversion of the solid form in slurry", "setting": "[3]", "value": "no propensity of inter-conversion"}]}
